Experimental data published in patent US12059400B2, “Medical compound” (VERA SALUS RICERCA S.R.L., priority 2017, dated 2024).

What was measured:
Type in all cases: cell-based
[1] = tested on: human melanoma cells (A375); assay: Cell proliferation, crystal violet method; settings: for IC50: Homo sapiens, A-375, crystal violet, spectrophotometer, read-out: IC50 anti-proliferative effect, Melanoma (A375)
Experimental: (§1) The compound according to the invention, and in particular the synthetic quercetin derivatives described and illustrated herein were investigated in vitro by using human tumour cells and assessing their impact on the tumour proliferative capacity, with regard to the tumours described above. In particular, the following human tumour cell lines were assessed experimentally: 1) HCT116, colon adenocarcinoma cells; 2) H1299, lung adenocarcinoma cells; 3) A375, melanoma cells, and 4) A431, squamous skin cell carcinoma; 5) 786-0, renal carcinoma cells; 6) PC3, prostate carcinoma cells; 7) BT549, mammary carcinoma cells; 8) CAL27, tongue carcinoma cells (belonging to the head-and-neck carcinomas); 9) HepG2, hepatocellular carcinoma cells; 10) PANC-1, pancreas carcinoma cells; 11) T24, bladder carcinoma cells; 12) OVCAR-3, ovarian carcinoma cells. In addition, a normal human cell line, WS1 (skin fibroblasts) was also treated with the novel synthetic compounds.
(§2) Cell proliferation was quantified by the crystal violet method with a spectrophotometer. In short, after acquiring serial images (0, 24 and 48 hrs) with the EVOS XL Cell Imaging System microscope (Thermo Fisher Scientific), the cells imaged at 48 hrs were fixed with paraformaldehyde (4%) and stained with Crystal Violet (1%). Then, the specific absorbance (λ=590 nm) at 48 hrs was measured with a spectrophotometer (Infinite®200 PRO, Tecan). Data analysis was carried out by using ad-hoc Excel files for graphical representation and statistical processing (t-test). Moreover, the results obtained with Crystal Violet were confirmed by using another cell proliferation assessment method based on the real time cellular analyzer XCELLigence RTCA DP (ACEA Biosciences, Inc.). This tool allows cell growth to be monitored from electrical impedance-derived quantitative values (the so-called Cell Index) measured by tiny electrodes located at the base of the culture wells. Proliferation is monitored for several days (5-7) by setting a Cell Index per minute measure on the instrument. The data are analysed by processing various parameters calculated by the dedicated software, such as the cell duplication time, the slope and the Max Cell Index.
(§3) Cell proliferation was quantitated spectrophotometrically by the crystal violet method.

[2] = tested on: human ovarian carcinoma cells (OVCAR-3); assay: Cell proliferation, crystal violet method; settings: for OVCAR-3 cell growth vs vehicle control: 60 μM, FIG. 11a, 11b; for IC50: Homo sapiens, OVCAR-3, crystal violet, spectrophotometer, read-out: IC50 anti-proliferative effect, OCC - (OVCAR)
Experimental: as §1, §2, §3

[3] = tested on: human colon carcinoma cells (HCT116); assay: Cell proliferation, crystal violet method; settings: for IC50: Homo sapiens, HCT-116, crystal violet, spectrophotometer, read-out: IC50 anti-proliferative effect, CRC (HCT116)
Experimental: as §1, §2, §3

[4] = tested on: human colon carcinoma cells (HCT116); assay: Intracellular ROS levels, DCFH2-DA probe; settings: 2 hrs of treatment; at the respective anti-proliferative IC50s; DCF fluorescence in A.U.; FIG. 22 left
Experimental: Intracellular ROS levels were measured in tumour cells by using the probe 2,7-dichlorodihydrofluorescein diacetate (DCFH2-DA) and a fluorescence spectrophotometer. DCFH2-DA diffuses readily through the cell membrane into the cytosolic space of the cell where it is hydrolyzed by intracellular esterases into the non-permeable DCFH2 product. DCFH2 oxidation by intracellular ROS (mainly H2O2, HO·, ROO·, NO· and ONOO) results in the production of intracellular fluorescent DCF, whose concentration is directly proportional to the levels of ROS in the cell. […] All the experiments were repeated at least 3 times. Data analysis was carried out with GraphPad Prism 6 for graphical representation and statistical processing (1-way ANOVA test).

| SMILES | IC50 [1] [µM] | IC50 [2] [µM] | IC50 [3] [µM] | A375 cell growth vs vehicle control ([1]; 10 μM and 30 μM, FIG. 14) | OVCAR-3 cell growth vs vehicle control [2] | HCT116 cell growth vs vehicle control ([3]; 10 μM and 30 μM, FIG. 15) | intracellular ROS levels in HCT116 cells [4] | A375 cell growth vs vehicle control ([1]; 30 μM and 100 μM, FIG. 16) | HCT116 cell growth vs vehicle control ([3]; 30 μM and 100 μM, FIG. 16) | proliferation of melanoma cells (A375) vs vehicle control ([1]; concentration not given, FIG. 12 for Compound 26) | HCT116 cell growth vs vehicle control ([3]; 100 μM, FIG. 3a, 3b, 13a, 13b) |
| --- | --- | --- | --- | --- | --- | --- | --- | --- | --- | --- | --- |
| O=C(NCCOCCOc1c(-c2ccc(O)c(O)c2)oc2cc(O)cc(O)c2c1=O)c1ccc(-c2ccc(C(=O)NCCOCCOc3c(-c4ccc(O)c(O)c4)oc4cc(O)cc(O)c4c3=O)cc2)cc1 [Compound 19b] | 9.48 |  | 5.51 | significantly inhibited |  | significantly inhibited | significantly raise |  |  |  |  |
| CCCCCCCCCCCCCCCC(=O)NCCc1ccc(OCCCC(=O)NCCOCCOc2c(-c3ccc(O)c(O)c3)oc3cc(O)cc(O)c3c2=O)c(OCCCC(=O)NCCOCCOc2c(-c3ccc(O)c(O)c3)oc3cc(O)cc(O)c3c2=O)c1 [Compound 36] | 89.8 |  | 112 |  |  |  |  | inhibit | inhibit |  |  |
| O=C(CCCOc1c(-c2ccc(O)c(O)c2)oc2cc(O)cc(O)c2c1=O)N[C@H]1CCCC[C@H]1NC(=O)CCCOc1c(-c2ccc(O)c(O)c2)oc2cc(O)cc(O)c2c1=O [Compound 15a] | 23 |  | 13.3 | significantly inhibited |  | significantly inhibited |  |  |  |  |  |
| O=C(NCCOCCOc1c(-c2ccc(O)c(O)c2)oc2cc(O)cc(O)c2c1=O)c1cc(C(=O)NCCOCCOc2c(-c3ccc(O)c(O)c3)oc3cc(O)cc(O)c3c2=O)cc(C(=O)NCCOCCOc2c(-c3ccc(O)c(O)c3)oc3cc(O)cc(O)c3c2=O)c1 [Compound 22a] | 136 |  | 49.9 |  |  |  |  | inhibit | inhibit |  |  |
| O=C(CCCOc1c(-c2ccc(O)c(O)c2)oc2cc(O)cc(O)c2c1=O)NCCCOCCOCCOCCCNC(=O)CCCOc1c(-c2ccc(O)c(O)c2)oc2cc(O)cc(O)c2c1=O [Compound 15b] | 24.6 |  | 18.6 | significantly inhibited |  | significantly inhibited |  |  |  |  |  |
| O=c1c(OCCOCCO)c(-c2ccc(O)c(O)c2)oc2cc(O)cc(O)c12 [Compound 26] | 52.3 |  | 81.2 |  |  |  |  |  |  | significantly inhibits | significantly inhibits |
| O=C(CCCC(=O)NCCOCCOc1c(-c2ccc(O)c(O)c2)oc2cc(O)cc(O)c2c1=O)NCCOCCOc1c(-c2ccc(O)c(O)c2)oc2cc(O)cc(O)c2c1=O [Compound 19a] |  |  | > 1000 |  |  |  |  |  |  |  |  |
| NCCOCCOc1c(-c2ccc(O)c(O)c2)oc2cc(O)cc(O)c2c1=O [Compound 27] |  |  | 378 |  |  |  |  |  |  |  | greater anti-proliferative effects |
| O=C(NCCOCCOc1c(-c2ccc(O)c(O)c2)oc2cc(O)cc(O)c2c1=O)C1CC(C(=O)NCCOCCOc2c(-c3ccc(O)c(O)c3)oc3cc(O)cc(O)c3c2=O)CC(C(=O)NCCOCCOc2c(-c3ccc(O)c(O)c3)oc3cc(O)cc(O)c3c2=O)C1 (stereo not shown) [Compound 22b] | > 1000 |  | 407 |  |  |  |  |  |  |  |  |
| O=C(CCCOc1c(-c2ccc(O)c(O)c2)oc2cc(O)cc(O)c2c1=O)NCC1CCC(CNC(=O)CCCOc2c(-c3ccc(O)c(O)c3)oc3cc(O)cc(O)c3c2=O)CC1 (stereo not shown) [Compound 15d] | 7.16 |  | 12.1 | significantly inhibited |  | significantly inhibited |  |  |  |  |  |
| O=C(CCCOc1c(-c2ccc(O)c(O)c2)oc2cc(O)cc(O)c2c1=O)NCc1ccc(CNC(=O)CCCOc2c(-c3ccc(O)c(O)c3)oc3cc(O)cc(O)c3c2=O)cc1 [Compound 15c] | 15.5 |  | 15.8 | significantly inhibited |  | significantly inhibited |  |  |  |  |  |
| O=C(NCCOCCOc1c(-c2ccc(O)c(O)c2)oc2cc(O)cc(O)c2c1=O)c1ccc(Oc2ccc(C(=O)NCCOCCOc3c(-c4ccc(O)c(O)c4)oc4cc(O)cc(O)c4c3=O)cc2)cc1 [Compound 19c] | 3.95 | 7.44 | 1.28 | significantly inhibited | significantly inhibit | significantly inhibited |  |  |  |  |  |
| O=C(NCCOCCOc1c(-c2ccc(O)c(O)c2)oc2cc(O)cc(O)c2c1=O)c1ccc(OCCCCCCOc2ccc(C(=O)NCCOCCOc3c(-c4ccc(O)c(O)c4)oc4cc(O)cc(O)c4c3=O)cc2)cc1 [Compound 19d] | 1.62 | 5.01 | 0.74 | significantly inhibited | significantly inhibit | significantly inhibited |  |  |  |  |  |

Continued, in another order:

| IC50 [1] [µM] | IC50 [2] [µM] | IC50 [3] [µM] | SMILES | A375 cell growth vs vehicle control ([1]; 10 μM and 30 μM, FIG. 14) | OVCAR-3 cell growth vs vehicle control [2] | HCT116 cell growth vs vehicle control ([3]; 10 μM and 30 μM, FIG. 15) | intracellular ROS levels in HCT116 cells [4] | A375 cell growth vs vehicle control ([1]; 30 μM and 100 μM, FIG. 16) | HCT116 cell growth vs vehicle control ([3]; 30 μM and 100 μM, FIG. 16) | proliferation of melanoma cells (A375) vs vehicle control ([1]; concentration not given, FIG. 12 for Compound 26) | HCT116 cell growth vs vehicle control ([3]; 100 μM, FIG. 3a, 3b, 13a, 13b) |
| --- | --- | --- | --- | --- | --- | --- | --- | --- | --- | --- | --- |
| 5.17 | 11.8 | 3.08 | CC/C=C\C/C=C\C/C=C\C/C=C\C/C=C\C/C=C\CCC(=O)NCCOCCOc1c(-c2ccc(O)c(O)c2)oc2cc(O)cc(O)c2c1=O [Compound 29f] | significantly inhibited | significantly inhibit | significantly inhibited |  |  |  |  |  |
| > 1000 |  | > 1000 | CCCCCCCCCCCCCCCCCCCCCC(=O)NCCOCCOc1c(-c2ccc(O)c(O)c2)oc2cc(O)cc(O)c2c1=O [Compound 29b] |  |  |  |  |  |  |  |  |
| 7.03 |  | 3.64 | CCCCCCCC/C=C\CCCCCCCC(=O)NCCOCCOc1c(-c2ccc(O)c(O)c2)oc2cc(O)cc(O)c2c1=O [Compound 29c] | significantly inhibited |  | significantly inhibited |  |  |  |  |  |
| 5.21 |  | 15.7 | CCCCCCCCCCCCCCCC(=O)NCCOCCOc1c(-c2ccc(O)c(O)c2)oc2cc(O)cc(O)c2c1=O [Compound 29a] | significantly inhibited |  | significantly inhibited |  |  |  |  |  |
| 5.89 | 16.1 | 4.36 | CCCCC/C=C\C/C=C\C/C=C\C/C=C\CCCC(=O)NCCOCCOc1c(-c2ccc(O)c(O)c2)oc2cc(O)cc(O)c2c1=O [Compound 29e] | significantly inhibited | significantly inhibit | significantly inhibited |  |  |  |  |  |
| 7.73 |  | 2.89 | CCCCC/C=C\C/C=C\CCCCCCCC(=O)NCCOCCOc1c(-c2ccc(O)c(O)c2)oc2cc(O)cc(O)c2c1=O [Compound 29d] | significantly inhibited |  | significantly inhibited |  |  |  |  |  |
| > 1000 |  | 304 | O=C(NCCOCCOc1c(-c2ccc(O)c(O)c2)oc2cc(O)cc(O)c2c1=O)c1cc(C(=O)NCCOCCOc2c(-c3ccc(O)c(O)c3)oc3cc(O)cc(O)c3c2=O)cc(-c2cc(C(=O)NCCOCCOc3c(-c4ccc(O)c(O)c4)oc4cc(O)cc(O)c4c3=O)cc(C(=O)NCCOCCOc3c(-c4ccc(O)c(O)c4)oc4cc(O)cc(O)c4c3=O)c2)c1 [Compound 25a] |  |  |  |  |  |  |  |  |
| 7.84 |  | 5.93 | COc1ccc(-c2ccc(C(=O)NCCOCCOc3c(-c4ccc(O)c(O)c4)oc4cc(O)cc(O)c4c3=O)cc2)cc1 [Compound 29g] | significantly inhibited |  | significantly inhibited |  |  |  |  |  |
